Where two headings read alike, the source gives them in different places.
Assay: Plasma pharmacokinetics of pamiparib (LC-MS/MS, non-compartmental)
Design: species or system human
Conditions: in vivo; for AUC(0-inf): AUC0-inf; for Vd/F: Vz/F
Description: Patients in the dose-escalation phase received a single oral dose of pamiparib on day 1 of cycle 1 to collect samples for single-dose PK assessment over 48 h, followed by continuous daily doses (BID and QD) starting on day 3 of cycle 1 as a 21-day period of repeated drug administration (days 3–23), and then continued every 21-day cycle thereafter until disease progression, toxicity, or patient withdrawal. Eight BID dose levels (2.5, 5, 10, 20, 40, 60, 80, 120 mg) were administered (Fig. 1). After completion of BID dose-escalation, alternative dosing regimens of 120 and 160 mg QD were selected for exploration based on the total daily dose equivalent to the RP2D (60 mg BID) and MTD (80 mg BID), respectively. The QD dosing regimen was added as an amendment to the protocol with the purpose of exploring the feasibility of a more convenient regimen. During the dose-expansion phase, patients received pamiparib 60 mg BID (RP2D from BID dose-escalation phase) continuously from day 1 of cycle 1.
Pamiparib in plasma was measured using a validated liquid chromatography-tandem–mass spectrometry assay with a lower limit of quantification of 1.0 ng/mL. The collection schedule for blood samples used to assess the PK profile is presented in the Supplemental Appendix. Summary PK parameters, including area under the concentration-time curve from time 0 to 9 h (AUC0-9) or infinity (AUC0-inf), maximal plasma concentration (Cmax) and time to maximal plasma concentration (Tmax), were estimated. The pharmacodynamic (PD) activity of pamiparib was explored through the evaluation of poly(ADP-ribose [PAR]) formation in peripheral blood mononuclear cells (PBMCs) after pamiparib administration. The schedule for blood sample collection (PK and PBMCs) and additional assessment information for PAR levels in PBMCs and pharmacodynamic activity is presented in the Supplemental Appendix. Antitumor activity was assessed by radiographic imaging (computed tomography or magnetic resonance imaging) during screening, within 28 days of first pamiparib dose, every 6 weeks in the first 12 months and every 9 weeks thereafter.
Descriptive statistics were used to summarise all study data (see Supplemental Appendix). Progression-free survival (PFS) and event-free rates were estimated using the Kaplan–Meier method along with the corresponding 95% CI. Pharmacokinetic parameters were derived using standard non-compartmental methods with Phoenix WinNonlin Version 6.4 or higher (Pharsight Corp., Mountain View, California).
The PK profile of pamiparib was assessed based on blood samples collected at predose and 0.5, 1, 2, 4, 6, 9, 24, and 48 hours postdose on Days 1-3 and then at predose and 0.5, 1, 2, 4, 6, and 9 hours postdose on Day 17 of Cycle 1 in Phase 1A. Sparse PK samples were collected in phase 1B Part A. The food effect on the PK of pamiparib was assessed based on blood samples collected at predose and 0.5, 1, 2, 4, 7, 24, and 48 hours postdose on Day 1 and Day 6 of Cycle 1 in phase 1B Part B.

[1] = human, 2.5 mg, Single Dose (Cycle 1 Day 1)
[2] = human, 5 mg, Single Dose (Cycle 1 Day 1)
[3] = human, 10 mg, Single Dose (Cycle 1 Day 1)
[4] = human, 20 mg, Single Dose (Cycle 1 Day 1)
[5] = human, 40 mg, Single Dose (Cycle 1 Day 1)
[6] = human, 60 mg, Single Dose (Cycle 1 Day 1)
[7] = human, 80 mg, Single Dose (Cycle 1 Day 1)
[8] = human, 120 mg, Single Dose (Cycle 1 Day 1)
[9] = human, 160 mg, Single Dose (Cycle 1 Day 1)

C[C@]12CCCN1CC1=NNC(=O)c3cc(F)cc4[nH]c2c1c34 [pamiparib]
Dose proportionality, AUC0-inf (h*ng/mL): Intercept (95% CI) (human): 5.97 (5.36-6.57) | Dose proportionality, AUC0-inf (h*ng/mL): Slope (95% CI) (human): 1.04 (0.88-1.20) | Dose proportionality, Cmax (ng/mL): Intercept (95% CI) (human): 3.66 (3.34-3.99) | Dose proportionality, Cmax (ng/mL): Slope (95% CI) (human): 0.96 (0.87-1.04) | Accumulation Ratio, AUC0-9 (human, 2.5 mg): 2.42 | Accumulation Ratio, Cmax (human, 2.5 mg): 2.44 | CL/F, Single Dose (Cycle 1 Day 1) (human, 2.5 mg): 4265.3 (34.8) mL/hr | t1/2, Single Dose (Cycle 1 Day 1) (human, 2.5 mg): 12.03 (7.08, 33.87) hr | AUC(0-t) (human, 2.5 mg, AUC0-9, Single Dose (Cycle 1 Day 1)): 385 ng·h/mL | AUC(0-t) (human, 2.5 mg, AUC0-9, Steady State (Cycle 1 Day 17)): 931 ng·h/mL | AUC(0-inf) [1]: 586 ng·h/mL | Cmax [1]: 74.5 ng/mL | Cmax (human, 2.5 mg, Steady State (Cycle 1 Day 17)): 182 ng/mL | Vd/F [1]: 52.4 L | Accumulation Ratio, AUC0-9 (human, 5 mg): 1.93 | Accumulation Ratio, Cmax (human, 5 mg): 2.09 | CL/F, Single Dose (Cycle 1 Day 1) (human, 5 mg): 2056.9 (49.5) mL/hr | AUC(0-t) (human, 5 mg, AUC0-9, Single Dose (Cycle 1 Day 1)): 1100 ng·h/mL | AUC(0-t) (human, 5 mg, AUC0-9, Steady State (Cycle 1 Day 17)): 2120 ng·h/mL | AUC(0-inf) [2]: 2430 ng·h/mL | Cmax [2]: 193 ng/mL | Cmax (human, 5 mg, Steady State (Cycle 1 Day 17)): 404 ng/mL | Tmax (human, 5 mg, Tmax, Steady State (Cycle 1 Day 17)): 0.53 h | Vd/F [2]: 32.7 L | half-life (human, 5 mg, t1/2, Single Dose (Cycle 1 Day 1)): 661 min | Accumulation Ratio, AUC0-9 (human, 10 mg): 1.68 | Accumulation Ratio, Cmax (human, 10 mg): 1.59 | CL/F, Single Dose (Cycle 1 Day 1) (human, 10 mg): 1359.2 (35.9) mL/hr | AUC(0-t) (human, 10 mg, AUC0-9, Single Dose (Cycle 1 Day 1)): 2580 ng·h/mL | AUC(0-t) (human, 10 mg, AUC0-9, Steady State (Cycle 1 Day 17)): 4330 ng·h/mL | AUC(0-inf) [3]: 7360 ng·h/mL | Cmax [3]: 412 ng/mL | Cmax (human, 10 mg, Steady State (Cycle 1 Day 17)): 657 ng/mL | Tmax (human, 10 mg, Tmax, Steady State (Cycle 1 Day 17)): 1.05 h | Vd/F [3]: 27.6 L | half-life (human, 10 mg, t1/2, Single Dose (Cycle 1 Day 1)): 845 min | AUC0-9, Single Dose (Cycle 1 Day 1) (human, 20 mg): 4134.9 (29.9) ng/ml*hr | Accumulation Ratio, AUC0-9 (human, 20 mg): 1.82 | Accumulation Ratio, Cmax (human, 20 mg): 1.62 | CL/F, Single Dose (Cycle 1 Day 1) (human, 20 mg): 2550.4 (58.7) mL/hr | Cmax, Steady State (Cycle 1 Day 17) (human, 20 mg): 1267.6 (19.9) ng/ml | AUC(0-t) (human, 20 mg, AUC0-9, Steady State (Cycle 1 Day 17)): 7510 ng·h/mL | AUC(0-inf) [4]: 7840 ng·h/mL | Cmax [4]: 783 ng/mL | Tmax (human, 20 mg, Tmax, Single Dose (Cycle 1 Day 1)): 0.53 h | Vd/F [4]: 31.4 L | half-life (human, 20 mg, t1/2, Single Dose (Cycle 1 Day 1)): 512 min | Accumulation Ratio, AUC0-9 (human, 40 mg): 1.86 | Accumulation Ratio, Cmax (human, 40 mg): 1.60 | CL/F, Single Dose (Cycle 1 Day 1) (human, 40 mg): 1826.6 (85.8) mL/hr | t1/2, Single Dose (Cycle 1 Day 1) (human, 40 mg): 11.76 (6.24, 24.37) hr | AUC(0-t) (human, 40 mg, AUC0-9, Single Dose (Cycle 1 Day 1)): 8950 ng·h/mL | AUC(0-t) (human, 40 mg, AUC0-9, Steady State (Cycle 1 Day 17)): 18300 ng·h/mL | AUC(0-inf) [5]: 21900 ng·h/mL | Cmax [5]: 1750 ng/mL | Cmax (human, 40 mg, Steady State (Cycle 1 Day 17)): 2940 ng/mL | Tmax (human, 40 mg, Tmax, Steady State (Cycle 1 Day 17)): 1.5 h | Vd/F [5]: 31 L | AUC0-9, Single Dose (Cycle 1 Day 1) (human, 60 mg): 10403.7 (29.2) ng/ml*hr | CL/F, Single Dose (Cycle 1 Day 1) (human, 60 mg): 1874.7 (55.4) mL/hr | Geometric mean half-life (human, 60 mg): 13.5 h | t1/2, Single Dose (Cycle 1 Day 1) (human, 60 mg): 13.50 (7.14, 24.61) hr | AUC(0-t) (human, 60 mg, AUC0-9, Steady State (Cycle 1 Day 17)): 25200 ng·h/mL | AUC(0-inf) [6]: 32000 ng·h/mL | Cmax [6]: 1880 ng/mL | Cmax (human, 60 mg, Steady State (Cycle 1 Day 17)): 3830 ng/mL | Vd/F [6]: 36.5 L | Accumulation Ratio, AUC0-9 (human, 80 mg): 2.07 | Accumulation Ratio, Cmax (human, 80 mg): 1.96 | CL/F, Single Dose (Cycle 1 Day 1) (human, 80 mg): 2786.6 (56.0) mL/hr | Cmax, Single Dose (Cycle 1 Day 1) (human, 80 mg): 2317.8 (43.0) ng/ml | AUC(0-t) (human, 80 mg, AUC0-9, Single Dose (Cycle 1 Day 1)): 13200 ng·h/mL | AUC(0-t) (human, 80 mg, AUC0-9, Steady State (Cycle 1 Day 17)): 25300 ng·h/mL | AUC(0-inf) [7]: 28700 ng·h/mL | Cmax (human, 80 mg, Steady State (Cycle 1 Day 17)): 4350 ng/mL | Tmax (human, 80 mg, Tmax, Single Dose (Cycle 1 Day 1)): 1.98 h | Tmax (human, 80 mg, Tmax, Steady State (Cycle 1 Day 17)): 1.08 h | Vd/F [7]: 38.5 L | half-life (human, 80 mg, t1/2, Single Dose (Cycle 1 Day 1)): 575 min | AUC0-9, Steady State (Cycle 1 Day 17) (human, 120 mg): 36558.4 (32.4) ng/ml*hr | AUC0-inf, Single Dose (Cycle 1 Day 1) (human, 120 mg): 68952.9 (43.3) ng/ml*hr | Cmax, Single Dose (Cycle 1 Day 1) (human, 120 mg): 3752.8 (41.1) ng/ml | Cmax, Steady State (Cycle 1 Day 17) (human, 120 mg): 6059.1 (27.7) ng/ml | Vz/F, Single Dose (Cycle 1 Day 1) (human, 120 mg): 31373.9 (13.9) mL | t1/2, Single Dose (Cycle 1 Day 1) (human, 120 mg): 14.29 (9.83, 30.30) hr | AUC(0-t) (human, 120 mg, AUC0-9, Single Dose (Cycle 1 Day 1)): 21100 ng·h/mL | AUC(0-t) (human, 120 mg, AUC0-9, Steady State (Cycle 1 Day 17)): 26900 ng·h/mL | AUC(0-inf) [8]: 52000 ng·h/mL | Cmax [8]: 3590 ng/mL | Cmax (human, 120 mg, Steady State (Cycle 1 Day 17)): 4530 ng/mL | Tmax (human, 120 mg, Tmax, Single Dose (Cycle 1 Day 1)): 1.95 h | Vd/F [8]: 36.3 L | half-life (human, 120 mg, t1/2, Single Dose (Cycle 1 Day 1)): 655 min | Accumulation Ratio, AUC0-9 (human, 160 mg): 1.47 | Accumulation Ratio, Cmax (human, 160 mg): 1.27 | CL/F, Single Dose (Cycle 1 Day 1) (human, 160 mg): 1569.1 (44.8) mL/hr | AUC(0-t) (human, 160 mg, AUC0-9, Single Dose (Cycle 1 Day 1)): 31800 ng·h/mL | AUC(0-t) (human, 160 mg, AUC0-9, Steady State (Cycle 1 Day 17)): 45300 ng·h/mL | AUC(0-inf) [9]: 102000 ng·h/mL | Cmax [9]: 5340 ng/mL | Cmax (human, 160 mg, Steady State (Cycle 1 Day 17)): 6870 ng/mL | Vd/F [9]: 34.5 L | half-life (human, 160 mg, t1/2, Single Dose (Cycle 1 Day 1)): 915 min | half-life (human, Mean terminal half-life): ~780 min | Tmax (human, Median Tmax): 1 to 2 h | Tmax (human, BID 2.5 mg, N 4, read-out: Tmax, Steady State (Cycle 1 Day 17)): 0.54 h | AUC0-9 (human, QD 120 mg, N 8, read-out: AUC0-9, Single Dose (Cycle 1 Day 1)): 21700 ng·h/mL | Exposure (Cmax and AUC0-inf) versus dose: dose-proportional increase

From publication PMC8854719, “Phase 1A/1B dose-escalation and -expansion study to evaluate the safety, pharmacokinetics, food effects and antitumor activity of pamiparib in advanced solid tumours” (British Journal of Cancer, 2021)
